Test results published in publication PMC11141368, “Antioxidant, antibacterial, enzyme inhibition and fluorescence characteristics of unsymmetrical thiourea derivatives” (Heliyon, 2024).

Key:
[1] = biological target: T1, butyryl cholinesterase (BChE) (Equus caballus, UniProt P81908); assay: Anticholinesterase assay (Elman's test), BChE; type: biochemical; conditions: for inhibition at 62.5 µg/mL / inhibition at 125 µg/mL / inhibition at 250 µg/mL / inhibition at 500 µg/mL / inhibition at 1000 µg/mL: read-out: BChE Percent inhibition
T1 construct: The AChE was derived from the electric eel, while BChE was obtained from equineserum; from tissue; host or cells: equine serum
Procedure: (§1) This assay employed two enzymes, namely acetylcholinesterase (AChE) and butyryl cholinesterase (BChE). The AChE was derived from the electric eel, while BChE was obtained from equineserum. The synthesized compounds were dissolved in phosphate buffer (0.1 M, pH 8.0). The enzymes AChE (518 U/mg) and BChE (7–16 U/mg) were diluted in a 0.1 M phosphate buffer to achieve concentrations of 0.03 U/mL and 0.01 U/mL, respectively. Preparations of ATchI (0.5 mM), DTNB (0.2273 mM), and BTchI (0.5 mM) were made in distilled water and stored at a low temperature of 8 °C. […] The solution was heated to 30 °C for 15 min, followed by the gradual addition of the substrate. Absorbance of the heated sample at 412 nm was measured using a double beam spectrophotometer. […] The percentage activity (A) and inhibition of the enzyme were determined by applying the rate of absorption as a function of time (V=ΔAbs/Δt) using the following equation (Equation (2)).(2) %Inhibition=V/Vmax×100 Where V = enzyme inhibition activity of products and Vmax = enzyme activity without test of product.

[2] = tested on: E. coli; assay: Antibacterial agar well diffusion; type: cell-based, Escherichia coli (ATCC25922); conditions: Escherichia coli, 24 h, 6.25 mg/mL per well, 37 °C
Excerpt: (§2) The antibacterial assay was done for all compounds (1–6) as described in previous studies. The mean number of viable organisms per milliliter of stock suspensions containing Escherichia coli (ATCC25922), Pseudomonas aeruginosa (ATCC27853), Salmonella typhi (ATCC0650), and Staphylococcus aureus (NCTC25953) was uncovered using the surface viable counting method. Preparations of suspensions containing approximately 108–109 colony forming units (CFU) per milliliter were made. Aseptic nutritional agar was formulated and transferred onto petri dishes. Cultures of bacteria were uniformly distributed on agar surface using sterile brush sticks. Five wells, each with a diameter of 6 mm, were made in each plate using a sterile borer. Afterwards, a concentration of 6.25 mg/mL of each component was applied to separate wells. Cephradine, a readily accessible antibiotic, was employed as a reference standard at an equivalent concentration. Following sealing, the agar dishes were incubated at a controlled temperature of 37 °C for a period of 24 h. The zone of inhibition in the plates was determined, which represents the inhibition of bacterial growth. Each sample zone of inhibition diameter was evaluated, and the antibacterial effectiveness of each drug was quantified according to the mean diameter of the inhibition zone (in millimetres).

[3] = tested on: P. aeruginosa; assay: Antibacterial agar well diffusion; type: cell-based, Pseudomonas aeruginosa (ATCC27853); conditions: Pseudomonas aeruginosa, 24 h, 6.25 mg/mL per well, 37 °C
Excerpt: as §2

[4] = tested on: S. typhi; assay: Antibacterial agar well diffusion; type: cell-based, Salmonella typhi (ATCC0650); conditions: Salmonella enterica, TYPHI, 24 h, 6.25 mg/mL per well, 37 °C
Excerpt: as §2

[5] = ABTS free radical scavenging assay; type: biochemical
Procedure: (§3) In accordance with the procedure described in the literature, the ABTS activity assay was applied to evaluate the free radical scavenging capabilities of the synthesized compounds (1–6). ABTS solution was prepared by mixing 7 mM ABTS and 2.45 mM potassium persulfate and was then placed for 16 h under dark at room temperature. A methanol dilution was performed on the solution to achieve an absorbance of 0.706 ± 0.001 at 734 nm before starting the assay. To quantify the assay, 3 mL of the ABTS solution has been added to different concentrations (ranging from 62.5 to 1000 μg/mL) of every compound (300 μL) that were dissolved in methanol. Then after 1 min of incubation, the absorbance was continuously measured for 5 min. To confirm precision, all experiments were conducted in triplicate. The antioxidant capacities of the compounds were assessed with gallic acid as a reference, and the ability to remove free radicals was calculated as a percentage for each compound employing Equation.1 as presented below. Additionally, the DPPH free radical scavenging method was employed to assess the antioxidant activity of compounds (1–6), in accordance with a widely recognized procedure documented in existing literature. Concentrations ranging from 62.5 to 1000 μg/mL of compounds (1–6), dissolved in methanol, were introduced into a 2 mL solution of DPPH (0.002 % in methanol). The resulting solutions were kept in the dark at room temperature for a duration of 30 min. The amount of light absorbed by the solutions was then determined using a UV/vis spectrophotometer at a wavelength of 517 nm. The investigations were performed three times, using the exact protocol described for the ABTS scavenging assay. Afterwards, the antioxidant capabilities of each molecule were assessed using calculation.(1) Scavengingactivity(%)=A−B/A×100
(§4) Where, A = absorbance of ABTS/DPPH and B = absorbance of solution containing ABTS/DPPH and test samples.

[6] = biological target: T2, acetylcholinesterase (AChE) (Electrophorus electricus, UniProt O42275); assay: biochemical; conditions: for inhibition at 62.5 µg/mL / inhibition at 125 µg/mL / inhibition at 250 µg/mL / inhibition at 500 µg/mL / inhibition at 1000 µg/mL: read-out: AChE Percent inhibition
T2 construct: The AChE was derived from the electric eel, while BChE was obtained from equineserum; from tissue; host or cells: electric eel (tissue not specified)
Procedure: as §1

[7] = DPPH free radical scavenging assay; type: biochemical
Procedure: as §3, §4

[8] = tested on: S. flexenari; assay: Antibacterial agar well diffusion; type: cell-based; conditions: 24 h, 6.25 mg/mL per well, 37 °C

T1 sequence (P81908 whole entry): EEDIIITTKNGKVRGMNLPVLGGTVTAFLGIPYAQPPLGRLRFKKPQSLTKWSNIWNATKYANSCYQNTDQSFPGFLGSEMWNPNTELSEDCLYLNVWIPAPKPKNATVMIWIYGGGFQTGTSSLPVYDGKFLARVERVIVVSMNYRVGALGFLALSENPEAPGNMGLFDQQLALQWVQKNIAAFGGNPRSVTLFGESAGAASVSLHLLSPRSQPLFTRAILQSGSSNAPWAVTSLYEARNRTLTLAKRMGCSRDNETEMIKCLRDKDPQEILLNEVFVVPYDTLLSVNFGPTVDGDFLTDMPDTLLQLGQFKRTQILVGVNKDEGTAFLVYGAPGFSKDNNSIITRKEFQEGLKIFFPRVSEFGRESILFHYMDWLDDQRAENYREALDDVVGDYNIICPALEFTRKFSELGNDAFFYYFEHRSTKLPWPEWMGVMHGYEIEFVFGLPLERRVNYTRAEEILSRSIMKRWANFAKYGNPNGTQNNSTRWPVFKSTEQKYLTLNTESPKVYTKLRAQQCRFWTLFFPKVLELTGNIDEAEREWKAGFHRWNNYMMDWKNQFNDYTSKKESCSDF
T2 sequence (O42275 24-633): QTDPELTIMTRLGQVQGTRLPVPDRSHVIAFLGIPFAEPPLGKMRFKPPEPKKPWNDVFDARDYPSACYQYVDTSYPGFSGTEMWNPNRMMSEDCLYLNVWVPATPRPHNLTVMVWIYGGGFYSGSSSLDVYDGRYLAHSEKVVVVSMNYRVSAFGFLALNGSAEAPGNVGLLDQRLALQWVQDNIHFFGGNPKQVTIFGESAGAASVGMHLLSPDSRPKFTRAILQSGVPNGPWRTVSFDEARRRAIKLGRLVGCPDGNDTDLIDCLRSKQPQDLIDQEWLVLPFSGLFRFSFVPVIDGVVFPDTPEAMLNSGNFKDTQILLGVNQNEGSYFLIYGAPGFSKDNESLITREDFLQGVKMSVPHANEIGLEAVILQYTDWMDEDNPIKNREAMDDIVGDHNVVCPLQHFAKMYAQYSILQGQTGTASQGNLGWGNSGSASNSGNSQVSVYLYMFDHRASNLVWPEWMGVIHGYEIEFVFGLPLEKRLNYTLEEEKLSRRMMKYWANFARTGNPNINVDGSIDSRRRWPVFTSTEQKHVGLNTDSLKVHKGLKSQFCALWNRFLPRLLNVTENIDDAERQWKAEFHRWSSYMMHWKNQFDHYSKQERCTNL

## Cc1cccnc1NC(=S)Nc1ccccc1 [Compound 5, 1-(3-methylpyridin-2-yl)-3-phenylthiourea]
[1]
  inhibition at 62.5 µg/mL: 31.9 ± 0.48%
  inhibition at 125 µg/mL: 39 ± 0.48%
  inhibition at 250 µg/mL: 47.9 ± 0.96%
  inhibition at 500 µg/mL: 61.6 ± 1.34%
  inhibition at 1000 µg/mL: 69.6 ± 1.12%
[2]
  zone of inhibition at 6250 µg/mL: 10.5 mm
[3]
  zone of inhibition at 6250 µg/mL: 9.5 mm
[4]
  zone of inhibition at 6250 µg/mL: 11.5 mm
[5]
  ABTS IC50: 44.60 µg/mL
[5]; 62.5 μg/mL
  ABTS %inhibition: 67.80 ± 1.50%
[5]; 125 μg/mL
  ABTS %inhibition: 72.56 ± 1.06%
[5]; 250 μg/mL
  ABTS %inhibition: 77.42 ± 0.43%
[5]; 500 μg/mL
  ABTS %inhibition: 85.23 ± 1.83%
[5]; 1000 μg/mL
  ABTS %inhibition: 92.76 ± 0.71%
[6]
  IC50: 1410 µM
  inhibition at 62.5 µg/mL: 38.7 ± 0.68%
  inhibition at 125 µg/mL: 44.7 ± 1.25%
  inhibition at 250 µg/mL: 48 ± 0.75%
  inhibition at 500 µg/mL: 56.3 ± 1.06%
  inhibition at 1000 µg/mL: 63.3 ± 0.98%
[7]
  DPPH IC50: 37.50 µg/mL
[7]; 62.5 μg/mL
  DPPH %inhibition: 62.44 ± 0.58%
[7]; 125 μg/mL
  DPPH %inhibition: 67.56 ± 1.73%
[7]; 250 μg/mL
  DPPH %inhibition: 74.31 ± 2.15%
[7]; 500 μg/mL
  DPPH %inhibition: 81.65 ± 1.34%
[7]; 1000 μg/mL
  DPPH %inhibition: 88.58 ± 1.12%
[8]
  zone of inhibition at 6250 µg/mL: 10.5 mm

## S=C(Nc1ccccc1)Nc1cccc(Cl)c1 [Compound 6, 1-(3-chlorophenyl)-3-phenylthiourea]
[1]
  IC50: 216 µM
  inhibition at 62.5 µg/mL: 51.61 ± 0.43%
  inhibition at 125 µg/mL: 55.1 ± 0.6%
  inhibition at 250 µg/mL: 61.2 ± 1.4%
  inhibition at 500 µg/mL: 66.8 ± 7.85%
  inhibition at 1000 µg/mL: 71.6 ± 1.63%
[2]
  zone of inhibition at 6250 µg/mL: 8.5 mm
[3]
  zone of inhibition at 6250 µg/mL: 15.5 mm
[4]
  zone of inhibition at 6250 µg/mL: 9.5 mm
[5]
  ABTS IC50: 86.03 µg/mL
[5]; 62.5 μg/mL
  ABTS %inhibition: 44.27 ± 1.53%
[5]; 125 μg/mL
  ABTS %inhibition: 53.26 ± 2.76%
[5]; 250 μg/mL
  ABTS %inhibition: 63.09 ± 1.34%
[5]; 500 μg/mL
  ABTS %inhibition: 75.19 ± 2.59%
[5]; 1000 μg/mL
  ABTS %inhibition: 81.28 ± 2.17%
[6]
  IC50: 329 µM
  inhibition at 62.5 µg/mL: 47.61 ± 0.43%
  inhibition at 125 µg/mL: 52.7 ± 1.01%
  inhibition at 250 µg/mL: 57.8 ± 1.5%
  inhibition at 500 µg/mL: 62.84 ± 0.3%
  inhibition at 1000 µg/mL: 67.51 ± 0.54%
[7]
  DPPH IC50: 90.30 µg/mL
[7]; 62.5 μg/mL
  DPPH %inhibition: 43.49 ± 2.72%
[7]; 125 μg/mL
  DPPH %inhibition: 53.66 ± 1.17%
[7]; 250 μg/mL
  DPPH %inhibition: 61.47 ± 2.74%
[7]; 500 μg/mL
  DPPH %inhibition: 76.24 ± 2.61%
[7]; 1000 μg/mL
  DPPH %inhibition: 82.19 ± 2.32%
[8]
  zone of inhibition at 6250 µg/mL: 10.5 mm
